Reference: patent publication US10285982B2, “3-(1H-pyrrolo[2,3-B]pyridin-2-yl)-1H-pyrazolo[3,4-C]pyridines and therapeutic uses thereof” (Samumed, LLC, priority 2015, dated 2019)
pEC50: −log10 of the molar value.

Test system: IL-6 (THP-1 cells)
Assay: IL-6 inhibition in LPS-stimulated THP-1 cells (HTRF)
Type: cell-based
Conditions: Homo sapiens; for pEC50: IL-6 in THP-1 cells, LPS 500 ng/mL, 22 hours; for inhibition at 10 µM: given where EC50 >10 μM, IL-6, THP-1 cells, LPS, read-out: percent inhibition at 10 μM
Description: Human monocyte cell line (THP-1 cells; Catalog # TIB-202, ATCC, Manassas, Va.) were cultured in Roswell Park Memorial Institute (RPMI) 1640 Medium (Catalog #21870-100, Buffalo, N.Y.) with 1% L-glutamine, 1% HEPES, 1% Sodium Pyruvate, 2% Sodium Bicarbonate supplemented with 100 units/mL penicillin, 50 μg/mL streptomycin, 2-mercaptoethanol (0.05 mM) [basal medium] and 10% fetal bovine serum (Catalog #16140089, Life Technologies, Carlsbad, Calif.) at 37° C. and 5% CO2.
THP-1 cells were cultured in basal media with 1% FBS for 24 hours before the start of the assay. Each compound was dissolved in DMSO as a 10 mM stock and used to prepare compound source plates. Serial dilution (1:3, 10-point dose-response curves starting from 10 μM) and compound transfer was performed using the ECHO 550 (Labcyte, Sunnyvale, Calif.) into 384-well white low volume assay plates (Greiner Bio-One) with appropriate DMSO backfill for a final DMSO concentration of 0.1%. THP-1 cells were plated at 5000 cells/well in the 384-well plates and incubated at 37° C. for 2 h. 500 ng/mL of LPS was added after 2 hours and cells were incubated for another 22 hours at 37° C. Plates were spun in a centrifuge for 1 minute at […] and a mixture of anti-IL6 XL665, and anti-IL6 Cryptate diluted in reconstitution buffer (Cisbio Inc.) was added to each well. Following incubation for 3 hrs at room temperature, Homogeneous Time-Resolved Fluorescence (HTRF) was measured using the Envision (Perkin Elmer) at 665 nm and […]. The ratio of fluorescence at 665 nm to 620 nm was used as a readout for IL6 quantification. All samples were processed in duplicate. Readings were normalized to DMSO treated cells and normalized activities were utilized for EC50 calculations using the dose-response log (inhibitor) vs. response-variable slope (four parameters) nonlinear regression feature available in GraphPad Prism 5.0 (or Dotmatics). For EC50 of >10 μM, the percent inhibition at 10 μM is provided.

SMILES | pEC50 | inhibition at 10 µM [%]
Fc1cccc(-c2ccnc3[nH]c(-c4n[nH]c5cnc(-c6cccnc6)cc45)cc23)c1 [Compound 4, 3-(4-(3-Fluorophenyl)-1H-pyrrolo[2,3-b]pyridin-2-yl)-5-(pyridin-3-yl)-1H-pyrazolo[3,4-c]pyridine] | < 5.00 | 21.3
CC(C)CC(=O)Nc1cncc(-c2cc3c(-c4cc5c(-c6ccc(F)cc6)ccnc5[nH]4)n[nH]c3cn2)c1 [Compound 30, N-(5-(3-(4-(4-Fluorophenyl)-1H-pyrrolo[2,3-b]pyridin-2-yl)-1H-pyrazolo [3,4-c]pyridin-5-yl)pyridin-3-yl)-3-methylbutanamide] | < 5.00 | 35.6
CC(C)C(=O)Nc1cncc(-c2cc3c(-c4cc5c(-c6ccc(F)cc6)ccnc5[nH]4)n[nH]c3cn2)c1 [Compound 37, N-(5-(3-(4-(4-Fluorophenyl)-1H-pyrrolo[2,3-b]pyridin-2-yl)-1H-pyrazolo [3,4-c]pyridin-5-yl)pyridin-3-yl)isobutyramide] | < 5.00 | 25.4
O=C(Nc1cncc(-c2cc3c(-c4cc5c(-c6ccc(F)cc6)ccnc5[nH]4)n[nH]c3cn2)c1)C1CCC1 [Compound 49, N-(5-(3-(4-(4-Fluorophenyl)-1H-pyrrolo[2,3-b]pyridin-2-yl)-1H-pyrazolo [3,4-c]pyridin-5-yl)pyridin-3-yl)cyclobutanecarboxamide] | < 5.00 | 26.1
O=C(Cc1ccccc1)Nc1cncc(-c2cc3c(-c4cc5c(-c6ccccc6F)ccnc5[nH]4)n[nH]c3cn2)c1 [Compound 66, N-(5-(3-(4-(2-Fluorophenyl)-1H-pyrrolo[2,3-b]pyridin-2-yl)-1H-pyrazolo [3,4-c]pyridin-5-yl)pyridin-3-yl)-2-phenylacetamide] | < 5.00 | 35.8
CCCCC(=O)Nc1cncc(-c2cc3c(-c4cc5c(-c6ccccc6F)ccnc5[nH]4)n[nH]c3cn2)c1 [Compound 75, N-(5-(3-(4-(2-Fluorophenyl)-1H-pyrrolo[2,3-b]pyridin-2-yl)-1H-pyrazolo [3,4-c]pyridin-5-yl)pyridin-3-yl)pentanamide] | < 5.00 | 0
O=C(Nc1cncc(-c2cc3c(-c4cc5c(-c6ccccc6F)ccnc5[nH]4)n[nH]c3cn2)c1)C1CCCCC1 [Compound 79, N-(5-(3-(4-(2-Fluorophenyl)-1H-pyrrolo[2,3-b]pyridin-2-yl)-1H-pyrazolo [3,4-c]pyridin-5-yl)pyridin-3-yl)cyclohexanecarboxamide] | < 5.00 | 5.9
Cc1ccncc1-c1cc2c(-c3cc4c(-c5ccncc5)ccnc4[nH]3)n[nH]c2cn1 [Compound 117, 5-(4-Methylpyridin-3-yl)-3-(4-(pyridin-4-yl)-1H-pyrrolo[2,3-b]pyridin-2-yl)-1H-pyrazolo[3,4-c]pyridine] | < 5.00 | 15.9
c1ccc(-c2cc3c(-c4cc5c(-c6ccncc6)ccnc5[nH]4)n[nH]c3cn2)nc1 [Compound 140, 5-(Pyridin-2-yl)-3-(4-(pyridin-4-yl)-1H-pyrrolo[2,3-b]pyridin-2-yl)-1H-pyrazolo[3,4-c]pyridine] | < 5.00 | 23.5
c1cc(N2CCCCC2)c2cc(-c3n[nH]c4cnc(-c5cncc(CN6CCCC6)c5)cc34)[nH]c2n1 [Compound 182, 3-(4-(Piperidin-1-yl)-1H-pyrrolo[2,3-b]pyridin-2-yl)-5-(5-(pyrrolidin-1-ylmethyl)pyridin-3-yl)-1H-pyrazolo[3,4-c]pyridine] | < 5.00 | 39
O=C(Nc1cncc(-c2cc3c(-c4cc5c(N6CCCCC6)ccnc5[nH]4)n[nH]c3cn2)c1)C1CC1 [Compound 188, N-(5-(3-(4-(Piperidin-1-yl)-1H-pyrrolo[2,3-b]pyridin-2-yl)-1H-pyrazolo[3,4-c]pyridin-5-yl)pyridin-3-yl)cyclopropanecarboxamide] | < 5.00 | 16.2
O=C(Nc1cncc(-c2cc3c(-c4cc5cccnc5[nH]4)n[nH]c3cn2)c1)C1CCCCC1 [Compound 275, N-(5-(3-(1H-Pyrrolo[2,3-b]pyridin-2-yl)-1H-pyrazolo[3,4-c]pyridin-5-yl)pyridin-3-yl)cyclohexanecarboxamide] | < 5.00 | 24.7
Nc1cncc(-c2cc3c(-c4cc5c(-c6ccoc6)ccnc5[nH]4)n[nH]c3cn2)c1 [Compound 311, 5-(3-(4-(Furan-3-yl)-1H-pyrrolo[2,3-b]pyridin-2-yl)-1H-pyrazolo[3,4-c]pyridin-5-yl)pyridin-3-amine] | < 5.00 | 36.3
CN(C)CCNc1cc(F)cc(-c2ccnc3[nH]c(-c4n[nH]c5cnc(-c6ccncc6)cc45)cc23)c1 [Compound 466, N^1-(3-Fluoro-5-(2-(5-(pyridin-4-yl)-1H-pyrazolo[3,4-c]pyridin-3-yl)-1H-pyrrolo[2,3-b]pyridin-4-yl)phenyl)-N^2,N^2-dimethylethane-1,2-diamine] | < 5.00 | 5.9

Continued, in another order:

pEC50 | SMILES | inhibition at 10 µM [%]
< 5.00 | CCC(=O)Nc1cncc(-c2cc3c(-c4cc5c(-c6cccc(F)c6)ccnc5[nH]4)n[nH]c3cn2)c1 [Compound 1, N-(5-(3-(4-(3-Fluorophenyl)-1H-pyrrolo[2,3-b]pyridin-2-yl)-1H-pyrazolo [3,4-c]pyridin-5-yl)pyridin-3-yl)propionamide] | 23.6
< 5.00 | O=C(Nc1cncc(-c2cc3c(-c4cc5c(-c6cccc(F)c6)ccnc5[nH]4)n[nH]c3cn2)c1)c1ccccc1 [Compound 11, N-(5-(3-(4-(3-Fluorophenyl)-1H-pyrrolo[2,3-b]pyridin-2-yl)-1H-pyrazolo [3,4-c]pyridin-5-yl)pyridin-3-yl)benzamide] | 38.9
< 5.00 | CN(C)Cc1cncc(-c2cc3c(-c4cc5c(-c6ccccc6F)ccnc5[nH]4)n[nH]c3cn2)c1 [Compound 69, 1-(5-(3-(4-(2-Fluorophenyl)-1H-pyrrolo[2,3-b]pyridin-2-yl)-1H-pyrazolo [3,4-c]pyridin-5-yl)pyridin-3-yl)-N,N-dimethylmethanamine] | 17.4
< 5.00 | CC(C)(C)C(=O)Nc1cncc(-c2cc3c(-c4cc5c(-c6cccnc6)ccnc5[nH]4)n[nH]c3cn2)c1 [Compound 92, N-(5-(3-(4-(Pyridin-3-yl)-1H-pyrrolo[2,3-b]pyridin-2-yl)-1H-pyrazolo[3,4-c]pyridin-5-yl)pyridin-3-yl)pivalamide] | 23.3
< 5.00 | CC(C)CC(=O)Nc1cncc(-c2cc3c(-c4cc5c(-c6ccncc6)ccnc5[nH]4)n[nH]c3cn2)c1 [Compound 114, 3-Methyl-N-(5-(3-(4-(pyridin-4-yl)-1H-pyrrolo[2,3-b]pyridin-2-yl)-1H-pyrazolo[3,4-c]pyridin-5-yl)pyridin-3-yl)butanamide] | 13
< 5.00 | O=C(Cc1ccccc1)Nc1cncc(-c2cc3c(-c4cc5c(-c6ccncc6)ccnc5[nH]4)n[nH]c3cn2)c1 [Compound 122, 2-Phenyl-N-(5-(3-(4-(pyridin-4-yl)-1H-pyrrolo[2,3-b]pyridin-2-yl)-1H-pyrazolo[3,4-c]pyridin-5-yl)pyridin-3-yl)acetamide] | 34.8
< 5.00 | O=C(Nc1cncc(-c2cc3c(-c4cc5c(-c6ccncc6)ccnc5[nH]4)n[nH]c3cn2)c1)C1CCC1 [Compound 133, N-(5-(3-(4-(Pyridin-4-yl)-1H-pyrrolo[2,3-b]pyridin-2-yl)-1H-pyrazolo[3,4-c]pyridin-5-yl)pyridin-3-yl)cyclobutanecarboxamide] | 11.9
< 5.00 | O=C(Nc1cncc(-c2cc3c(-c4cc5c(-c6ccncc6)ccnc5[nH]4)n[nH]c3cn2)c1)C1CCCCC1 [Compound 135, N-(5-(3-(4-(Pyridin-4-yl)-1H-pyrrolo[2,3-b]pyridin-2-yl)-1H-pyrazolo[3,4-c]pyridin-5-yl)pyridin-3-yl)cyclohexanecarboxamide] | 17.8
< 5.00 | O=C(Cc1ccccc1)Nc1cncc(-c2cc3c(-c4cc5cccnc5[nH]4)n[nH]c3cn2)c1 [Compound 262, N-(5-(3-(1H-Pyrrolo[2,3-b]pyridin-2-yl)-1H-pyrazolo[3,4-c]pyridin-5-yl)pyridin-3-yl)-2-phenylacetamide] | 26.7
< 5.00 | O=C(Nc1cncc(-c2cc3c(-c4cc5cccnc5[nH]4)n[nH]c3cn2)c1)c1ccccc1 [Compound 263, N-(5-(3-(1H-Pyrrolo[2,3-b]pyridin-2-yl)-1H-pyrazolo[3,4-c]pyridin-5-yl)pyridin-3-yl)benzamide] | 39.2
